Measurements published in DBAASP.
Converted amounts (≈) assume the structure as drawn. “And” between values parts separate entries of the source, which are not always exact repeats. Identical values can stand only once. Blank lines part the entries; values can stand above or below the compound they belong to.

What was measured:
Test in all cases: ≥ marks a high value that may be exact or a test limit, other limits are often not marked, values filed in µg/mL are converted to µM
[1] = tested on: Bacillus subtilis KCTC 3068
[2] = tested on: Escherichia coli ATCC 25922
[3] = tested on: Salmonella typhimurium CMCC 50013
[4] = tested on: Staphylococcus aureus ATCC 29213
[5] = tested on: Bacillus cereus ATCC 10876
[6] = tested on: Pseudomonas aeruginosa ATCC 27853
[7] = tested on: Salmonella enterica subsp. enterica serovar Typhimurium ATCC 14028
[8] = tested on: Streptococcus iniae KCTC 3657
Candida albicans = tested on: Candida albicans
[9] = tested on: Candida krusei CGMCC 2.1857
[10] = tested on: Candida parapsilosis CGMCC 2.3989
[11] = tested on: Candida tropicalis CGMCC 2.1975
Escherichia coli 1005 = tested on: Escherichia coli 1005
Escherichia coli = tested on: Escherichia coli
Klebsiella pneumoniae = tested on: Klebsiella pneumoniae
[12] = tested on: Pseudomonas aeruginosa PAO1
Pseudomonas aeruginosa = tested on: Pseudomonas aeruginosa
[13] = tested on: Salmonella enterica subsp. enterica serovar Pullorum ATCC 7913
[14] = tested on: Staphylococcus aureus ATCC 25923
[15] = tested on: Staphylococcus aureus ATCC 43300
Staphylococcus aureus = tested on: Staphylococcus aureus
[16] = tested on: Staphylococcus epidermidis ATCC 12228
Streptococcus pneumoniae = tested on: Streptococcus pneumoniae
[17] = tested on: Mycobacterium tuberculosis CAS3
[18] = tested on: Mycobacterium tuberculosis H37Rv
[19] = tested on: Mycobacterium tuberculosis WXY
[20] = tested on: Staphylococcus pseudintermedius
Acinetobacter baumannii = tested on: Acinetobacter baumannii
Escherichia coli K88 = tested on: Escherichia coli K88
Escherichia coli K99 = tested on: Escherichia coli K99
Escherichia coli UB1005 = tested on: Escherichia coli UB1005
[21] = tested on: Pseudomonas aeruginosa CICC 21625
[22] = tested on: Pseudomonas aeruginosa CICC 21630
[23] = tested on: Salmonella enterica subsp. enterica serovar Pullorum C79-13
[24] = tested on: Salmonella enterica subsp. enterica serovar Typhimurium C77-31
Aspergillus flavus = tested on: Aspergillus flavus
[25] = tested on: Aspergillus fumigatus NCPF 2109
Aspergillus niger A296 = tested on: Aspergillus niger A296
Candida albicans MDM8 = tested on: Candida albicans MDM8
[26] = tested on: Candida parapsilosis IOC 4564
[27] = tested on: Candida tropicalis IOC 4560
[28] = tested on: Cryptococcus neoformans var. grubii H99
[29] = tested on: Saccharomyces cerevisiae ATCC 2601

MIC [1]: ≥ 133 µM
MIC [2]: 172 µM (≈ 91.4 µg/mL)
MIC [3]: ≥ 186 µM
MIC [4]: 158 µM (≈ 83.9 µg/mL)
Structure (SMILES): CC[C@H](C)[C@H](NC(=O)[C@@H](N)CO)C(=O)N[C@@H](CO)C(=O)N[C@@H](CC(C)C)C(=O)N[C@@H](CC(C)C)C(=O)O [SISLL]

MIC [5]: 12.9 µM (≈ 46 µg/mL)
MIC [2]: 0.559 µM (≈ 2 µg/mL)
MIC [6]: 0.839 µM (≈ 3 µg/mL)
MIC [7]: 0.42 µM (≈ 1.5 µg/mL)
MIC [4]: > 35.8 µM
MIC [8]: 8.95 µM (≈ 32 µg/mL)
Structure (SMILES): CC[C@H](C)[C@H](NC(=O)[C@H](Cc1ccccc1)NC(=O)[C@@H](NC(=O)[C@H](CCCCN)NC(=O)[C@@H](NC(=O)[C@H](CCCCN)NC(=O)[C@H](CCCCN)NC(=O)[C@H](Cc1ccccc1)NC(=O)[C@@H](NC(=O)[C@H](CCCCN)NC(=O)[C@H](CCCN=C(N)N)NC(=O)[C@H](Cc1ccccc1)NC(=O)CNC(=O)[C@H](CCCCN)NC(=O)[C@H](CCCCN)NC(=O)[C@@H](NC(=O)[C@H](CCCCN)NC(=O)[C@H](CCCN=C(N)N)NC(=O)[C@H](Cc1ccccc1)NC(=O)[C@H](Cc1ccccc1)NC(=O)[C@H](CCCCN)NC(=O)[C@H](CCCCN)NC(=O)[C@H](Cc1ccccc1)NC(=O)[C@H](CCCN=C(N)N)NC(=O)[C@H](CCCCN)NC(=O)[C@@H](NC(=O)[C@@H](N)CCCN=C(N)N)C(C)C)[C@@H](C)CC)[C@@H](C)CC)[C@@H](C)O)[C@@H](C)CC)C(=O)NCC(=O)O [RVKRFKKFFRKIKKGFRKIFKKTKIFIG]

MIC (Candida albicans): 2.83 µM (≈ 4.45 µg/mL)
MIC [9]: 4 µM (≈ 6.29 µg/mL)
MIC [10]: 16 µM (≈ 25.2 µg/mL)
MIC [11]: 2 µM (≈ 3.15 µg/mL)
MIC (Escherichia coli 1005): 2 µM (≈ 3.15 µg/mL)
MIC [2]: 4 µM and > 2 µM
MIC (Escherichia coli): 8 µM (≈ 12.6 µg/mL)
MIC (Klebsiella pneumoniae): 32 µM (≈ 50.3 µg/mL)
MIC [12]: 16 µM (≈ 25.2 µg/mL)
MIC (Pseudomonas aeruginosa): 16 µM (≈ 25.2 µg/mL)
MIC [13]: 2 µM (≈ 3.15 µg/mL)
MIC [7]: 4 µM (≈ 6.29 µg/mL)
MIC [14]: 4 µM (≈ 6.29 µg/mL)
MIC [4]: 4 µM (≈ 6.29 µg/mL)
MIC [15]: 2 µM (≈ 3.15 µg/mL)
MIC (Staphylococcus aureus): 8 µM (≈ 12.6 µg/mL)
MIC [16]: 4 µM (≈ 6.29 µg/mL)
MIC (Streptococcus pneumoniae): ≥ 32 µM
Structure (SMILES): NC(=O)[C@H](CCCN=C(N)N)NC(=O)[C@H](Cc1c[nH]c2ccccc12)NC(=O)[C@H](CCCN=C(N)N)NC(=O)[C@H](Cc1c[nH]c2ccccc12)NC(=O)[C@H](Cc1c[nH]c2ccccc12)NC(=O)[C@H](Cc1c[nH]c2ccccc12)NC(=O)[C@H](CCCN=C(N)N)NC(=O)[C@H](Cc1c[nH]c2ccccc12)NC(=O)[C@@H](N)CCCN=C(N)N [RWRWWWRWR]

MIC [17]: ≥ 93.1 µM
MIC [18]: ≥ 93.1 µM
MIC [19]: ≥ 93.1 µM
Structure (SMILES): CC(C)C[C@H](NC(=O)[C@H](C)NC(=O)[C@H](C)NC(=O)[C@H](CCCN=C(N)N)NC(=O)[C@H](CO)NC(=O)[C@H](CC(C)C)NC(=O)[C@H](CCCCN)NC(=O)[C@H](CCCCN)NC(=O)[C@H](CCCCN)NC(=O)[C@H](C)N)C(=O)N[C@@H](CCCN=C(N)N)C(=O)N[C@@H](C)C(=O)N[C@@H](C)C(=O)N[C@H](C(=O)N[C@@H](CCCCN)C(=O)O)C(C)C [AKKKLSRAALRAAVK]

MIC [6]: 27.6 µM (≈ 65.1 µg/mL)
MIC (Pseudomonas aeruginosa): 55.2 µM (≈ 130 µg/mL)
MIC [4]: 27.6 µM (≈ 65.1 µg/mL)
MIC [20]: 27.6 µM (≈ 65.1 µg/mL)
Structure (SMILES): CC[C@H](C)[C@H](NC(=O)[C@@H]1CCCN1C(C)=O)C(=O)N[C@@H](Cc1cnc[nH]1)C(=O)N[C@@H](CCCN=C(N)N)C(=O)N[C@@H](CCCN=C(N)N)C(=O)N[C@H](C(=O)N1CCC[C@H]1C(=O)N1CCC[C@H]1C(=O)N[C@@H](CCCN=C(N)N)C(=O)N[C@@H](Cc1c[nH]c2ccccc12)C(=O)N1CCC[C@H]1C(=O)N[C@@H](CCCN=C(N)N)C(=O)N[C@@H](CC(C)C)C(=O)N[C@@H](CCCCN)C(=O)N[C@@H](CCCN=C(N)N)C(=O)N[C@@H](CCCN=C(N)N)C(=O)N[C@@H](Cc1c[nH]c2ccccc12)C(N)=O)[C@@H](C)CC [PIHRRIPPRWPRLKRRW]

MIC (Acinetobacter baumannii): ≥ 64 µM
MIC [2]: > 64 µM
MIC (Escherichia coli K88): ≥ 64 µM
MIC (Escherichia coli K99): ≥ 64 µM
MIC (Escherichia coli UB1005): ≥ 64 µM
MIC (Escherichia coli): > 64 µM
MIC (Klebsiella pneumoniae): > 64 µM
MIC [6]: > 64 µM
MIC [21]: ≥ 64 µM
MIC [22]: ≥ 64 µM
MIC [12]: > 64 µM
MIC (Pseudomonas aeruginosa): > 64 µM
MIC [23]: ≥ 64 µM
MIC [7]: > 64 µM
MIC [24]: ≥ 64 µM
Structure (SMILES): CC(C)[C@H](N)C(=O)N[C@@H](CCCCN)C(=O)N1CCC[C@H]1C(=O)N[C@H](C(=O)N[C@H](C(=O)N[C@@H](CCCCN)C(=O)N1CCC[C@H]1C(=O)N[C@H](C(=O)N[C@H](C(=O)N[C@@H](CCCCN)C(=O)N1CCC[C@H]1C(=O)N[C@H](C(=O)N[C@H](C(=O)N[C@@H](CCCCN)C(=O)N1CCC[C@H]1C(=O)N[C@H](C(=O)N[C@H](C(=O)N[C@@H](CCCCN)C(=O)N1CCC[C@H]1C(=O)N[C@H](C(=O)N[C@H](C(=O)N[C@@H](CCCCN)C(=O)N1CCC[C@H]1C(=O)N[C@H](C(=O)N[C@H](C(=O)N[C@@H](CCCCN)C(=O)N1CCC[C@H]1C(=O)N[C@H](C(N)=O)C(C)C)C(C)C)C(C)C)C(C)C)C(C)C)C(C)C)C(C)C)C(C)C)C(C)C)C(C)C)C(C)C)C(C)C)C(C)C [VKPVVKPVVKPVVKPVVKPVVKPVVKPV]

MIC (Aspergillus flavus): ≥ 50 µM
MIC [25]: 6.3 µM (≈ 11.8 µg/mL)
MIC (Aspergillus niger A296): 12.5 µM (≈ 23.5 µg/mL)
MIC (Candida albicans MDM8): 2.1 µM (≈ 3.94 µg/mL)
MIC [26]: 12.5 µM (≈ 23.5 µg/mL)
MIC [27]: 2.1 µM (≈ 3.94 µg/mL)
MIC [28]: 1.6 µM (≈ 3 µg/mL)
MIC [29]: 3.1 µM (≈ 5.82 µg/mL)
Structure (SMILES): CC(C)C[C@H](NC(=O)[C@H](CC(C)C)NC(=O)[C@H](CCCCN)NC(=O)[C@@H](N)Cc1ccccc1)C(=O)N[C@@H](CO)C(=O)N[C@@H](Cc1cnc[nH]1)C(=O)N[C@@H](CO)C(=O)N[C@@H](CC(C)C)C(=O)N[C@@H](CC(C)C)C(=O)N[C@H](C(=O)N[C@H](C(=O)N[C@@H](CC(C)C)C(=O)N[C@@H](C)C(=O)N[C@@H](CO)C(=O)N[C@@H](Cc1cnc[nH]1)C(=O)N[C@@H](CC(C)C)C(=O)N1CCC[C@H]1C(=O)O)[C@@H](C)O)C(C)C [FKLLSHSLLVTLASHLP]
